Data from patent US10501425B2, “Microbiocidal oxadiazole derivatives” (SYNGENTA PARTICIPATIONS AG, priority 2015, dated 2019).

Assays:
[1] = test system: Glomerella lacenarium (Colletotrichum lagenarium); test: Glomerella lagenarium liquid culture / cucumber / preventative (anthracnose); type: cell-based; settings: Colletotrichum orbiculare; 20 ppm in the applied formulation; liquid culture (PDB), growth inhibition measured photometrically 3 to 4 days after application; compared to untreated; read-out: disease control
Experimental: Mycelia fragments or conidia suspensions of a fungus prepared either freshly from liquid cultures of the fungus or from cryogenic storage, are directly mixed into nutrient broth. DMSO solutions of the test compound (max. 10 mg/ml) are diluted with 0.025% Tween20 by a factor of 50 and 10 μl of this solution is pipetted into a microtiter plate (96-well format). The nutrient broth containing the fungal spores/mycelia fragments is then added to give an end concentration of the tested compound. The test plates are incubated in the dark at 24° C. and 96% relative humidity. The inhibition of fungal growth is determined photometrically after 2 to 7 days, depending on the pathosystem, and percent antifungal activity relative to the untreated check is calculated.
Conidia of the fungus from cryogenic storage are directly mixed into nutrient broth (PDB—potato dextrose broth). After placing a (DMSO) solution of test compound into a microtiter plate (96-well format), the nutrient broth containing the fungal spores is added.
The following compounds at 20 ppm in the applied formulation give at least 80% disease control in this test when compared to untreated control under the same conditions, which show extensive disease development.

[2] = test system: Phakopsora pachyrhizi; test: Phakopsora pachyrhizi / soybean / leaf disc preventative (Asian soybean rust); type: in vivo; settings: foliar, 200 ppm in the applied formulation, soybean leaf disks, compared to untreated, read-out: disease control
Experimental: (§1) Leaf disks or leaf segments of various plant species are cut from plants grown in a greenhouse. The cut leaf disks or segments are placed in multiwell plates (24-well format) onto water agar. The leaf disks are sprayed with a test solution before (preventative) or after (curative) inoculation. Compounds to be tested are prepared as DMSO solutions (max. 10 mg/ml) which are diluted to the appropriate concentration with 0.025% Tween20 just before spraying. The inoculated leaf disks or segments are incubated under defined conditions (temperature, relative humidity, light, etc.) according to the respective test system. A single evaluation of disease level is carried out 3 to 14 days after inoculation, depending on the pathosystem. Percent disease control relative to the untreated check leaf disks or segments is then calculated.
Soybean leaf disks are placed on water agar in multiwell plates (24-well format) and sprayed with the formulated test compound diluted in water. One day after application leaf discs are inoculated by spraying a spore suspension on the lower leaf surface. After an incubation period in a climate cabinet of 24-36 hours in darkness at 20° C. and 75% rh leaf disc are kept at 20° C. with 12 h light/day and 75% rh. The activity of a compound is assessed as percent disease control compared to untreated when an appropriate level of disease damage appears in untreated check leaf disks (12 to 14 days after application).
(§2) The following compounds at 200 ppm in the applied formulation give at least 80% disease control in this test when compared to untreated control leaf disks under the same conditions, which show extensive disease development.

[3] = test system: Puccinia recondita f. Sp. Tritici; test: Puccinia recondita f. sp. tritici / wheat / leaf disc curative (brown rust); type: in vivo; settings: foliar, 24 h, 200 ppm in the applied formulation, wheat leaf segments cv. Kanzler, curative (applied 1 day after inoculation), compared to untreated, read-out: disease control
Experimental: as §1
Wheat leaf segments cv. Kanzler are placed on agar in multiwell plates (24-well format). The leaf segments are then inoculated with a spore suspension of the fungus. Plates were stored in darkness at 19° C. and 75% relative humidity. The formulated test compound diluted in water was applied 1 day after inoculation. The leaf segments were incubated at 19° C. and 75% relative humidity under a light regime of 12 hours light/12 hours darkness in a climate cabinet and the activity of a compound was assessed as percent disease control compared to untreated when an appropriate level of disease damage appears in untreated check leaf segments (6 to 8 days after application).
as §2

[4] = test system: Puccinia recondita f. Sp. Tritici; test: Puccinia recondita f. sp. tritici / wheat / leaf disc preventative (brown rust); type: in vivo; settings: foliar, 200 ppm in the applied formulation, wheat leaf segments cv. Kanzler, preventative (inoculated 1 day after application), compared to untreated, read-out: disease control
Experimental: as §1, with “calculated. Wheat leaf segments cv. Kanzler were placed on agar in multiwell plates (24-well format) and sprayed with the formulated test compound diluted in water. The leaf disks were inoculated with a spore suspension of the fungus 1 day after application. The inoculated leaf segments were incubated at 19° C. and 75% relative humidity (rh) under a light regime of 12 hours light/12 hours darkness in a climate cabinet and the activity of a compound was assessed as percent disease control compared to untreated when an appropriate level of disease damage appears in untreated check leaf segments (7 to 9 days after application). The following compounds at 200 ppm in the applied formulation give at least 80% disease control in this test when compared to untreated control leaf disks under the same conditions, which show extensive disease development.” for “calculated.”

CCCC(C)(C)C(=O)NCc1ccc(-c2noc(C(F)(F)F)n2)cc1 [Compound 1.4, 2,2-dimethyl-N-[[4-[5-(trifluoromethyl)-1,2,4-oxadiazol-3-yl]phenyl]methyl]pentanamide]
≥ 80%: inhibition of growth at 20 ppm [1] | pest or weed control at 200 ppm [2] | pest or weed control at 200 ppm [3] | pest or weed control at 200 ppm [4]

CC(C)C(=O)NCc1ccc(-c2noc(C(F)(F)F)n2)cc1 [Compound 1.6, 2-methyl-N-[[4-[5-(trifluoromethyl)-1,2,4-oxadiazol-3-yl]phenyl]methyl]propanamide]
≥ 80%: inhibition of growth at 20 ppm [1] | pest or weed control at 200 ppm [2] | pest or weed control at 200 ppm [3] | pest or weed control at 200 ppm [4]

C=CCCC(=O)NCc1ccc(-c2noc(C(F)(F)F)n2)cc1 [Compound 1.7, N-[[4-[5-(trifluoromethyl)-1,2,4-oxadiazol-3-yl]phenyl]methyl]pent-4-enamide]
≥ 80%: inhibition of growth at 20 ppm [1] | pest or weed control at 200 ppm [2] | pest or weed control at 200 ppm [3] | pest or weed control at 200 ppm [4]

CCCCCC(=O)NCc1ccc(-c2noc(C(F)(F)F)n2)cc1 [Compound 1.8, N-[[4-[5-(trifluoromethyl)-1,2,4-oxadiazol-3-yl]phenyl]methyl]hexanamide]
≥ 80%: inhibition of growth at 20 ppm [1] | pest or weed control at 200 ppm [2] | pest or weed control at 200 ppm [3] | pest or weed control at 200 ppm [4]

CC(=O)CC(C)C(=O)NCc1ccc(-c2noc(C(F)(F)F)n2)cc1 (centres unmarked) [Compound 1.9, 2-methyl-4-oxo-N-[[4-[5-(trifluoromethyl)-1,2,4-oxadiazol-3-yl]phenyl]methyl]pentanamide]
≥ 80%: inhibition of growth at 20 ppm [1] | pest or weed control at 200 ppm [2] | pest or weed control at 200 ppm [3] | pest or weed control at 200 ppm [4]

CCCC(=O)NCc1ccc(-c2noc(C(F)(F)F)n2)cc1 [Compound 1.10, N-[[4-[5-(trifluoromethyl)-1,2,4-oxadiazol-3-yl]phenyl]methyl]butanamide]
≥ 80%: inhibition of growth at 20 ppm [1] | pest or weed control at 200 ppm [2] | pest or weed control at 200 ppm [3] | pest or weed control at 200 ppm [4]

CC(C)CC(=O)NCc1ccc(-c2noc(C(F)(F)F)n2)cc1 [Compound 1.12, 3-methyl-N-[[4-[5-(trifluoromethyl)-1,2,4-oxadiazol-3-yl]phenyl]methyl]butanamide]
≥ 80%: inhibition of growth at 20 ppm [1] | pest or weed control at 200 ppm [2] | pest or weed control at 200 ppm [3] | pest or weed control at 200 ppm [4]

CC=CCC(=O)NCc1ccc(-c2noc(C(F)(F)F)n2)cc1 [Compound 1.14, N-[[4-[5-(trifluoromethyl)-1,2,4-oxadiazol-3-yl]phenyl]methyl]pent-3-enamide]
≥ 80%: inhibition of growth at 20 ppm [1] | pest or weed control at 200 ppm [2] | pest or weed control at 200 ppm [3] | pest or weed control at 200 ppm [4]

CC(C)(C)CC(=O)NCc1ccc(-c2noc(C(F)(F)F)n2)cc1 [Compound 1.15, 3,3-dimethyl-N-[[4-[5-(trifluoromethyl)-1,2,4-oxadiazol-3-yl]phenyl]methyl]butanamide]
≥ 80%: inhibition of growth at 20 ppm [1] | pest or weed control at 200 ppm [2] | pest or weed control at 200 ppm [3] | pest or weed control at 200 ppm [4]

CCC(C)C(=O)NCc1ccc(-c2noc(C(F)(F)F)n2)cc1 (centres unmarked) [Compound 1.17, 2-methyl-N-[[4-[5-(trifluoromethyl)-1,2,4-oxadiazol-3-yl]phenyl]methyl]butanamide]
≥ 80%: inhibition of growth at 20 ppm [1] | pest or weed control at 200 ppm [2] | pest or weed control at 200 ppm [3] | pest or weed control at 200 ppm [4]

CCC(C)(CC)C(=O)NCc1ccc(-c2noc(C(F)(F)F)n2)cc1 [Compound 1.20, 2-ethyl-2-methyl-N-[[4-[5-(trifluoromethyl)-1,2,4-oxadiazol-3-yl]phenyl]methyl]butanamide]
≥ 80%: inhibition of growth at 20 ppm [1] | pest or weed control at 200 ppm [2] | pest or weed control at 200 ppm [3] | pest or weed control at 200 ppm [4]

COCCCC(=O)NCc1ccc(-c2noc(C(F)(F)F)n2)cc1 [Compound 1.21, 4-methoxy-N-[[4-[5-(trifluoromethyl)-1,2,4-oxadiazol-3-yl]phenyl]methyl]butanamide]
≥ 80%: inhibition of growth at 20 ppm [1] | pest or weed control at 200 ppm [2] | pest or weed control at 200 ppm [3] | pest or weed control at 200 ppm [4]

CCC(C)C(=O)NCc1ccc(-c2noc(C(F)(F)F)n2)c(F)c1F (centres unmarked) [Compound 1.59, N-[[2,3-difluoro-4-[5-(trifluoromethyl)-1,2,4-oxadiazol-3-yl]phenyl]methyl]-2-methyl-butanamide]
≥ 80%: inhibition of growth at 20 ppm [1] | pest or weed control at 200 ppm [2] | pest or weed control at 200 ppm [4]

CC(=O)NCC(=O)NCCc1ccc(-c2noc(C(F)(F)F)n2)cc1 [Compound 1.82, 2-acetamido-N-[2-[4-[5-(trifluoromethyl)-1,2,4-oxadiazol-3-yl]phenyl]ethyl]acetamide]
≥ 80%: pest or weed control at 200 ppm [2]

CC(CO)(CCl)C(=O)NCCc1ccc(-c2noc(C(F)(F)F)n2)cc1 (centres unmarked) [Compound 1.88, 2-(chloromethyl)-3-hydroxy-2-methyl-N-[2-[4-[5-(trifluoromethyl)-1,2,4-oxadiazol-3-yl]phenyl]ethyl]propanamide]
≥ 80%: inhibition of growth at 20 ppm [1] | pest or weed control at 200 ppm [2]

O=C(CC(F)(F)F)NCCc1ccc(-c2noc(C(F)(F)F)n2)cc1 [Compound 1.91, 3,3,3-trifluoro-N-[2-[4-[5-(trifluoromethyl)-1,2,4-oxadiazol-3-yl]phenyl]ethyl]propanamide]
≥ 80%: inhibition of growth at 20 ppm [1] | pest or weed control at 200 ppm [2] | pest or weed control at 200 ppm [4]

CC#CCOC(=O)NCc1ccc(-c2noc(C(F)(F)F)n2)cc1 [Compound 2.7, but-2-ynyl N-[[4-[5-(trifluoromethyl)-1,2,4-oxadiazol-3-yl]phenyl]methyl]carbamate]
≥ 80%: pest or weed control at 200 ppm [2] | pest or weed control at 200 ppm [4]

CCC(C)NC(=O)NCc1ccc(-c2noc(C(F)(F)F)n2)cc1 (centres unmarked) [Compound 3.7, 1-sec-butyl-3-[[4-[5-(trifluoromethyl)-1,2,4-oxadiazol-3-yl]phenyl]methyl]urea]
≥ 80%: inhibition of growth at 20 ppm [1] | pest or weed control at 200 ppm [2] | pest or weed control at 200 ppm [4]

CC(C)(C)NC(=O)NCc1ccc(-c2noc(C(F)(F)F)n2)cc1 [Compound 3.15, 1-tert-butyl-3-[[4-[5-(trifluoromethyl)-1,2,4-oxadiazol-3-yl]phenyl]methyl]urea]
≥ 80%: inhibition of growth at 20 ppm [1] | pest or weed control at 200 ppm [3] | pest or weed control at 200 ppm [4]
